Laboratory results taken from the supplement of paper PMC8882468.

Experiments:
Assay in all cases: CTG-3D luminescence at 96 h relative to day-0 seeding control (ratio to day 0); higher = more growth / less cytotoxicity; PDxO 3D drug screen, 96 h, CTG-3D normalised to day-0 seeding control.
MDA-MB-231 = test system: MDA-MB-231
HCI-005.E2 = test system: HCI-005.E2 (organoid from a breast cancer xenograft with a HER2-positive history)
HCI-017.E2 = test system: HCI-017.E2 (organoid from an ER-positive breast cancer xenograft)
HCI-011.E2 = test system: HCI-011.E2 (organoid from an ER-positive breast cancer xenograft)
HCI-008 = test system: HCI-008 (organoid from a HER2-enriched breast cancer xenograft)
HCI-015 = test system: HCI-015 (organoid from a triple-negative breast cancer xenograft)
HCI-027 = test system: HCI-027 (organoid from a triple-negative breast cancer xenograft)

NC1(C(=O)N[C@@H](CCO)c2ccc(Cl)cc2)CCN(c2nc[nH]c3nccc2-3)CC1 [capivasertib]
CTG-3D luminescence at 96 h
Settings	12.5 pM	0.00025 µM	0.005 µM	0.1 µM	1 µM	10 µM	100 µM	625 fM
HCI-005.E2	1.64	1.67	1.86	2.16	1.02	0.59	0.467	1.73
HCI-011.E2	1.63	1.67	1.43	1.63	1.05	0.559	0.275	1.8
HCI-017.E2	1.91	2.1835	2.12	1.61	1.02	0.644	0.2237	2.12
MDA-MB-231	4.33	4.28	4.42	4.28	4.07	3.88	2.39	4.44

CTG-3D luminescence at 96 h
Settings	12.5 pM	0.00025 µM	0.005 µM	0.1 µM	1 µM	10 µM	100 µM	625 fM
HCI-008, days in culture: 228	1.6	2.11	1.54	0.955	0.441	0.222	0.155	1.76
HCI-008, days in culture: 244	1.6	1.98	1.87	1.34	0.546	0.415	0.392	2.08
HCI-011.E2, days in culture: 74	1.84	2.07	2.01	1.54	1	0.548	0.307	2.49
HCI-015, days in culture: 172	2.34	2.2	2.33	1.49	1.2	0.92	0.424	2.15
HCI-015, days in culture: 191	2.07	1.39	1.53	1.06	1.24	0.533	0.257	1.27
HCI-015, days in culture: 218	1.47	1.49	1.11	1.59	0.974	0.878	0.315	1.71
HCI-017.E2, days in culture: 85	2.33	2.6	2.77	2.3	1.44	0.794	0.118	2.69
HCI-027, days in culture: 176	2.31	1.3	2.32	1.05	1.12	0.758	0.0952	2.13
HCI-027, days in culture: 194	1.58	1.48	1.43	1.57	1.36	1.2	0.0815	1.55
HCI-027, days in culture: 201	1.67	1.8	1.88	2.17	1.71	0.976	0.0625	1.6

COc1cc2c(Oc3ccc4[nH]c(C)cc4c3F)ncnc2cc1OCCCN1CCCC1 [cediranib]
CTG-3D luminescence at 96 h
Settings	12.5 pM	0.00025 µM	0.005 µM	0.1 µM	1 µM	10 µM	100 µM	625 fM
HCI-005.E2	1.5	1.54	1.77	1.68	1.11	0.322	0.0129	1.54
HCI-011.E2	1.53	1.52	1.45	2.05	1.65	1.44	0.0243	1.97
HCI-017.E2	1.74	2.27	2.12	2.09	1.751	1.81	0.00813	2.35
MDA-MB-231	4.34	4.3	4.48	4.29	4.44	1.46	0.0107	4.45

CTG-3D luminescence at 96 h
Settings	12.5 pM	0.00025 µM	0.005 µM	0.1 µM	1 µM	10 µM	100 µM	625 fM
HCI-008, days in culture: 228	1.83	1.99	1.53	2.02	1.69	-0.102	-0.136	1.51
HCI-008, days in culture: 244	1.25	1.7	1.65	2.04	1.62	0.0639	-0.000797	1.95
HCI-011.E2, days in culture: 74	2.32	2.91	2.13	2.41	2.47	2.28	0.0101	2.38
HCI-015, days in culture: 172	2.29	1.76	2.22	1.47	2.43	0.0376	-0.0013	2.51
HCI-015, days in culture: 191	2.09	1.61	1.52	1.16	1.39	0.0236	-0.00165	1.33
HCI-015, days in culture: 218	1.26	1.53	1.55	1.85	1.49	0.0308	-0.00209	1.68
HCI-017.E2, days in culture: 85	2.93	3.39	2.44	2.78	2.18	2.05	0.00763	2.35
HCI-027, days in culture: 176	1.99	1.2	2.24	1.46	2.56	0.0266	-0.00276	1.66
HCI-027, days in culture: 194	1.76	1.48	1.39	1.94	2.13	0.0281	-0.00212	1.47
HCI-027, days in culture: 201	2.17	1.9	1.78	1.87	2.39	0.0302	-0.000884	1.9

C=CCn1c(=O)c2cnc(Nc3ccc(N4CCN(C)CC4)cc3)nc2n1-c1cccc(C(C)(C)O)n1 [adavosertib]
CTG-3D luminescence at 96 h
Settings	12.5 pM	0.00025 µM	0.005 µM	0.1 µM	1 µM	10 µM	100 µM	625 fM
HCI-005.E2	1.7	1.72	2.03	2.09	1.11	0.745	0.376	1.73
HCI-011.E2	1.73	1.67	1.49	1.89	1.41	1.73	1.51	1.62
HCI-017.E2	1.84	2.24	2.2	2.13	1.78	1.28	1.51	2.15
MDA-MB-231	4.36	4.34	4.48	4.31	3.06	1.05	1.27	4.41

CTG-3D luminescence at 96 h
Settings	12.5 pM	0.00025 µM	0.005 µM	0.1 µM	1 µM	10 µM	100 µM	625 fM
HCI-008, days in culture: 228	2.01	1.96	1.71	1.89	0.689	0.46	0.251	1.88
HCI-008, days in culture: 244	1.42	1.98	1.93	1.91	0.808	0.555	0.252	2.27
HCI-011.E2, days in culture: 74	1.66	2.29	2.11	2.08	2.2	2.35	1.38	2.46
HCI-015, days in culture: 172	2.15	2.15	2.3	1.04	1.39	0.498	0.139	2.33
HCI-015, days in culture: 191	2.26	1.49	1.67	0.981	0.612	0.246	0.0546	1.6
HCI-015, days in culture: 218	1.97	1.76	1.56	1.43	0.699	0.252	0.0554	1.82
HCI-017.E2, days in culture: 85	3.02	3.07	2.89	2.57	2.45	1.09	1.58	2.77
HCI-027, days in culture: 176	1.72	1.45	2.67	1.21	0.185	0.0765	0.0542	2.5
HCI-027, days in culture: 194	1.64	1.52	1.33	1.65	0.158	0.0827	0.0536	1.42
HCI-027, days in culture: 201	1.68	1.69	2.08	2.23	0.149	0.0964	0.0691	1.7
